The values that follow come from PMC7248809, “Differential Proliferation Effect of the Newly Synthesized Valine, Tyrosine and Tryptophan–Naphthoquinones in Immortal and Tumorigenic Cervical Cell Lines” (Molecules, 2020).

The structures appear in SMILES notation.

Series [1] can be described thus: Cyclic voltammetry in 0.1 M TBABF4/DMSO. The conditions noted are these: for irreversible anodic peak (negative potential region) / irreversible oxidation potential peak (positive potential region): Figure 2, vs Ag/Ag+, 100 mV s^−1; for ipa: anodic peak current density; for ipa / Epa / ipc / Epc / E1/2 / ΔEp / |ipa/ipc|: TBABF4 0.1 M/DMSO, 100 mV/s; for Epa: anodic peak potential of redox reaction; for Epa / Epc: vs Ag/Ag+ pseudo-reference; for ipc: cathodic peak current density; for Epc: cathodic peak potential of redox reaction; for E1/2: half-wave potential, E1/2 = (Epa + Epc)/2, vs Ag/Ag+; for ΔEp: potential peak separation, ΔEp = Epc − Epa; for |ipa/ipc|: ratio of anodic to cathodic peak current (reversibility).
Method: Electrochemical studies of naphthoquinone–amino acids (3a–c) and chloride–naphthoquinone–amino acids (4a–c) derivatives were studied by cyclic voltammetry (CV) as previously reported [24]. Briefly, non-aqueous solutions of compounds 3a–c or 4a–c at a concentration of 5 mM were dissolved in dimethyl sulfoxide (DMSO, Sigma–Aldrich, St. Louis, MO, USA) containing 0.1 M tetrabutylammonium tetrafluoroborate (TBABF4, Sigma–Aldrich, St. Louis, MO, USA) as supporting electrolyte. Then, the non-aqueous solutions containing 3a–c or 4a–c were studied by CV in a three-electrode cell using a freshly polished glassy carbon disk electrode (GC) (0.07 cm^2, BASi, West Lafayette, IN, USA) as working electrode and a Pt wire (Alfa-Aesar, Tewksbury, MA, USA) as counter electrode. An Ag/Ag^+ electrode in 0.1 M TBABF4/DMSO was used as pseudo-reference electrode. A potential scan was performed from −2.0 V to 0.75 V vs. Ag/Ag^+ at 100 mV s^−1 in the cathodic direction in order to identify any electron transfer reaction associated to compounds 3a–c or 4a–c using a potentiostat/galvanostat PAR VersaStat 3 (Ametek, Inc. Berwyn, PA, USA). Furthermore, any redox reaction processes of 3a–c or 4a–c were further studied at a scan rate of 10, 25, 50, 100, 200, and 300 mV s^−1. As received TBABF4 and DMSO were used without further purification or drying processes. All the non-aqueous testing solutions were degassed for 30 min with high-purity N2 gas before cyclic voltammetry experiments.

For series [2], the system named is SiHa cells (HPV-16 positive cervical tumor line). As to the kind of experiment: Cell proliferation (crystal violet), dose-response, SiHa. The conditions noted are these: Homo sapiens, 72 h.
Method: (§1) Immortal and HPV negative cell line HaCaT cells was selected as control for both immortality status and HPV content. […] In order to evaluate the effect of the naphthoquine amino acid derivatives in immortal and tumorigenic cells with HPV positive and negative status we performed a dose-response analysis.
(§2) (A) HaCaT HPV negative cell line cells were treated with 6.25, 12.5, 25, 50, 100 and 200 μM of naphthoquinone amino acid derivatives to assay proliferation rate at 72 h post-treatment. (B) SiHa HPV 16 positive cancer cells were treated with 6.25, 12.5, 25, 50, 100 and 200 μM of naphthoquinone amino acid derivatives to assay proliferation rate at 72 h post-treatment. (C) CaLo HPV 18 positive cancer cells were treated with 6.25, 12.5, 25, 50, 100 and 200 μM of naphthoquinone amino acid derivatives to assay proliferation rate at 72 h post-treatment. […] Cells treated with 0.1% of DMSO were used as Control. * represents statistically significant p < 0.05 value.
(§3) Cell proliferation was quantified by violet crystal dye in 1X phosphate-buffered saline (PBS) (2.7 mM KCl, 1.8 mM KH2PO4, 136 mM NaCl, 10 mM Na2HPO4 pH 7.4). The treated cells were incubated in methanol for 15 min and washed two times with distilled water. Cells were dyed with 0.1% crystal violet and washed three times with water and finally violet crystal was recovered with 10% acid acetic to be analyzed in microplate reader Multiskan GO Spectrophotometer (Thermo Scientific™, Ratastie, Finland).
Series [3] deals with CaLo cells (HPV-18 positive cervical tumor line). As to the kind of experiment: Cell proliferation (crystal violet), dose-response, CaLo. The conditions noted are these: 72 h.
Method: as §1, §2, §3
The subject of series [4] is HaCaT cells (HPV negative non-tumorigenic immortal keratinocytes). As to the kind of experiment: Cell proliferation (crystal violet), dose-response, HaCaT. The settings on record: Homo sapiens, 72 h.
Method: as §1, §2, §3

As a reminder, the melting point is the temperature of the solid-liquid transition. As usually defined, the IC50 is the concentration needed to halve the response being measured. Low readings indicate greater potency in that assay, high ones weaker potency in that assay. The molecule `CC(C)C(NC1=C(Cl)C(=O)c2ccccc2C1=O)C(=O)O` (stereo not shown) [Compound 4b, 2-((3-chloro-1,4-dioxo-1,4-dihydronaphthalen-2-yl)amino)-3-methylbutanoic acid] gave a melting point of 54 to 56 °C. In addition, in series [1], the “irreversible anodic peak (negative potential region)” value (from here on “irreversible anodic peak”) is listed as −0.36 V, the “irreversible oxidation potential peak (positive potential region)” value (“irreversible oxidation potential peak” below) stood at 0.57 V, the ipa is reported as 0.21 mA cm^−2 and the Epa is on record as −1.05 V. Moreover, in series [1], the ipc is on record as −0.25 mA cm^−2, the Epc is reported as −1.19 V, the E1/2 is reported as −1.12 V and the ΔEp amounted to 0.14 V. In addition, the “|ipa/ipc|” value in series [1] was 0.83. For the same molecule, inhibition in series [2] was half-maximal at 11.3 µM (IC50). Also, in series [3], the IC50 was found to be 2.88 µM. Also, the 50% inhibitory concentration (IC50) in series [4] was 7.97 µM.

`O=C1C=C(NC(Cc2ccc(O)cc2)C(=O)O)C(=O)c2ccccc21` (stereo not shown) [Compound 3a, 2-((1,4-dioxo-1,4-dihydronphthalen-2-yl)amino)-3-(4-hydroxyphenyl) propanoic acid] came in with a melting point of 214 to 216 °C. Moreover, in series [1], the “irreversible oxidation potential peak” value is on record as “higher than 0.5 V”, the ipa was determined as 0.28 mA cm^−2, the Epa is recorded as −1.15 V and the ipc is −0.30 mA cm^−2. For the same molecule, in series [1], the Epc is reported as −1.27 V, the E1/2 is recorded as −1.21 V, the ΔEp is reported as 0.13 V and the “|ipa/ipc|” value is given as 0.95. In series [2], the concentration for half-maximal inhibition (IC50) amounted to 41 µM. Further, in series [3], it took 81.1 µM to reach half-maximal inhibition (IC50). Also, the 50% inhibitory concentration (IC50) in series [4] was determined as 61.6 µM.

In the case of `O=C1C(Cl)=C(NC(Cc2ccc(O)cc2)C(=O)O)C(=O)c2ccccc21` (stereo not shown) [Compound 4a, 2-((3-chloro-1,4-dioxo-1,4-dihydronaphthalen-2-yl)amino)-3-(4-hydroxyphenyl)propanoic acid], in series [1], the “irreversible anodic peak” value is listed as −0.33 V, the “irreversible oxidation potential peak” value was “higher than 0.5 V”, the ipa is given as 0.22 mA cm^−2 and the Epa is −1.04 V. Moreover, in series [1], the ipc is reported as −0.24 mA cm^−2, the Epc is recorded as −1.15 V, the E1/2 was −1.10 V and the ΔEp came out at 0.11 V. Besides, in series [1], the “|ipa/ipc|” value was 0.92. This molecule registered an IC50 in series [2] of 6.83 µM. The IC50 in series [3] is 7.03 µM. The same molecule returned a concentration for half-maximal inhibition (IC50) in series [4] of 9.88 µM.

In the case of `O=C1C(Cl)=C(NC(Cc2c[nH]c3ccccc23)C(=O)O)C(=O)c2ccccc21` (stereo not shown) [Compound 4c, 2-((3-chloro-1,4-dioxo-1,4-dihydronaphthalen-2-yl)amino)-3-(1H-indol-3-yl)propanoic acid], in series [1], the “irreversible anodic peak” value is on record as −0.36 V, the “irreversible oxidation potential peak” value was 0.46 V, the ipa is recorded as 0.23 mA cm^−2 and the Epa is recorded as −1.05 V. In addition, in series [1], the ipc is on record as −0.27 mA cm^−2, the Epc is −1.17 V, the E1/2 is given as −1.11 V and the ΔEp was 0.12 V. Moreover, the “|ipa/ipc|” value in series [1] is recorded as 0.85. The molecule further registered a half-inhibitory concentration (IC50) in series [2] of 3.21 µM. In series [3], the IC50 worked out at 2.7 µM. The molecule further returned a half-inhibitory concentration (IC50) in series [4] of approximately 0.331 µM.

`CC(C)C(NC1=CC(=O)c2ccccc2C1=O)C(=O)O` (stereo not shown) [Compound 3b, 2-((1,4-dioxo-1,4-dihydronaphthalen-2-yl)amino)-3-methylbutanoic acid] gave a melting point of 170 to 172 °C. In series [1], the “irreversible anodic peak” value was −0.2 V, the “irreversible oxidation potential peak” value amounted to 0.60 V, the ipa is 0.28 mA cm^−2 and the Epa is listed as −1.16 V. Moreover, in series [1], the ipc was −0.30 mA cm^−2, the Epc is −1.27 V, the E1/2 was −1.21 V and the ΔEp came to 0.12 V. In series [1], the “|ipa/ipc|” value came to 0.95. Moreover, in series [2], the IC50 was 47.2 µM. Besides, the half-maximal inhibitory concentration (IC50) in series [3] worked out at 57 µM. This molecule also registered an IC50 in series [4] of 55.3 µM.

For the molecule `O=C1C=C(NC(Cc2c[nH]c3ccccc23)C(=O)O)C(=O)c2ccccc21` (stereo not shown) [Compound 3c, 2-((1,4-dioxo-1,4-dihidronaphthalen-2-yl)amino)-3-(1H-indol-3-yl)propanoic acid], in series [1], the “irreversible oxidation potential peak” value came out at 0.45 V, the ipa is on record as 0.26 mA cm^−2, the Epa was −1.19 V and the ipc is −0.27 mA cm^−2. Also, in series [1], the Epc is −1.30 V, the E1/2 is reported as −1.24 V, the ΔEp is 0.11 V and the “|ipa/ipc|” value was found to be 0.95. This molecule returned an IC50 in series [2] of 28.8 µM. The same molecule had a 50% inhibitory concentration (IC50) in series [3] of 25.2 µM. Moreover, it took 40.8 µM to reach half-maximal inhibition in series [4] (IC50).
